These results are taken from ChEMBL document CHEMBL1138978, “Studies toward the discovery of the next generation of antidepressants. Part 5: 3,4-Dihydro-2H-benzo[1,4]oxazine derivatives with dual 5-HT1A receptor and serotonin transporter affinity” (Bioorg Med Chem Lett, 2006).

What is called Emax is the greatest response seen or fitted, relative to the assay's reference. As usually defined, the inhibition is the change of the read-out against control, counted positive when it falls. What is called Ki is a measure of affinity in units of concentration, obtained from inhibition or displacement. Low values mean a stronger hold on the target, high ones a looser hold on the target. The term EC50 denotes the concentration giving half of the maximal effect. Read a low EC50 as higher potency in that assay.

The target in experiment [1] is T1, 5-hydroxytryptamine receptor 1A (Homo sapiens) (UniProt P08908).
T1 sequence (whole entry): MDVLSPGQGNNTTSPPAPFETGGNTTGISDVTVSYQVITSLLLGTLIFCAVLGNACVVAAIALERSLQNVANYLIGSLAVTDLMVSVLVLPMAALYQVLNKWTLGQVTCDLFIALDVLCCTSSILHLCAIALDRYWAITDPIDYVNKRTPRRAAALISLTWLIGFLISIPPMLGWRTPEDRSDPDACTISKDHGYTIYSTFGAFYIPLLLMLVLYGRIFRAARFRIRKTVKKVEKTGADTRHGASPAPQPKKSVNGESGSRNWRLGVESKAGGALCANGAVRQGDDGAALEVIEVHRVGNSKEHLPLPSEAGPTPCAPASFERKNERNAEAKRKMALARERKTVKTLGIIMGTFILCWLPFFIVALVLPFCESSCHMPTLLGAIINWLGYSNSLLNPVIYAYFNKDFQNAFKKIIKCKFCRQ
Description: Agonist activity assessed by stimulation of [35S]GTPgammaS binding in CHO cells expressing 5HT1A receptor relative to 5HT. The format is functional, cell-based.

The target of experiment [2] is Adrenergic receptor alpha-1 (Rattus norvegicus) (UniProt P15823+P23944+P43140). Kind of experiment: Inhibition of [3H]prazosin binding to adrenergic alpha-1 receptor in rat cortical membrane at 100 nM. The format is cell membranes.
Experiment [3] addresses Sodium-dependent serotonin transporter (Rattus norvegicus, UniProt P31652). Description: Displacement of [3H]paroxetine from rat cortical 5-HT reuptake. (In general: Loss of bound radioactivity is the signal in a displacement assay; it reports binding, not function.)
Experiment [4] concerns the target T2, 5-hydroxytryptamine receptor 1A (Homo sapiens, UniProt P08908).
T2 sequence (P08908 whole entry): T1 sequence (whole entry)
Kind of experiment: Displacement of [3H]8-OH-DPAT from 5HT1A receptor expressed in CHO cells. The format is cell-based.

Experiment [5] concerns the target T2, 5-hydroxytryptamine receptor 1A. Description: Intrinsic activity assessed by stimulation of [35S]GTP-gamma-S binding in CHO cells expressing 5HT1A receptor. In kind it is functional, cell-based. (GTPγS is a poorly hydrolysed GTP analogue; its binding reports G protein activation.)
For experiment [6], the target named is Sodium-dependent serotonin transporter (Rattus norvegicus) (UniProt P31652). Description: Inhibition of [3H]paroxetine binding to rat cortical 5-HT reuptake at 100 nM.
Experiment [7] concerns the target T3, Adrenergic receptor alpha-1 (Rattus norvegicus, UniProt P15823+P23944+P43140).
T3 sequence (P15823 whole entry): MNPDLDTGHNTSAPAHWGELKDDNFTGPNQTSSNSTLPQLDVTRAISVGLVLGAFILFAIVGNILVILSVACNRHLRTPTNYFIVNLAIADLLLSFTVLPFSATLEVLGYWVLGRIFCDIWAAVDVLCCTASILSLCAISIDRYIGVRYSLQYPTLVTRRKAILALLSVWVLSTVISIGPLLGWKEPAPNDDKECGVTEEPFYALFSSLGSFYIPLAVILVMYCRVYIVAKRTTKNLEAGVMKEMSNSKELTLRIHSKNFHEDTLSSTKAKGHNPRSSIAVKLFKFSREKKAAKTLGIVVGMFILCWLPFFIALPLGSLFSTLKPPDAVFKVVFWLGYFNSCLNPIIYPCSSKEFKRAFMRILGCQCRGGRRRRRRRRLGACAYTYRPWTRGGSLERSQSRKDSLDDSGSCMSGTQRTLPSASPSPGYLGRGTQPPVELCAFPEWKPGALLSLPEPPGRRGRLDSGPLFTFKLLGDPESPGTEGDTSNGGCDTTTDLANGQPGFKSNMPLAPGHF
T3 sequence (P23944 whole entry): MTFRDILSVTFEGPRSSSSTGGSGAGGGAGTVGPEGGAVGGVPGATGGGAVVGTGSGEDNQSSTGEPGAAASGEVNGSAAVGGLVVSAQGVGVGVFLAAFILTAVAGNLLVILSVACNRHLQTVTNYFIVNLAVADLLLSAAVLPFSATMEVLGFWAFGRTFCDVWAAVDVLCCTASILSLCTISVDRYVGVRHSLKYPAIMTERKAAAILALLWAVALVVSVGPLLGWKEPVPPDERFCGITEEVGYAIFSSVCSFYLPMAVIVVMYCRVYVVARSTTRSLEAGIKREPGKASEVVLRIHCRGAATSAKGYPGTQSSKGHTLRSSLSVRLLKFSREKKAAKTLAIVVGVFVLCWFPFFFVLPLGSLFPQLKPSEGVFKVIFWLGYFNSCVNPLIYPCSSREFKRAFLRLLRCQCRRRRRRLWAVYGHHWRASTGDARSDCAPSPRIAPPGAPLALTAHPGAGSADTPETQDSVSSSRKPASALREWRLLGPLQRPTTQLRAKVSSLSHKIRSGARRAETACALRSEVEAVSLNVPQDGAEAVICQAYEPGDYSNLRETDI
T3 sequence (P43140 whole entry): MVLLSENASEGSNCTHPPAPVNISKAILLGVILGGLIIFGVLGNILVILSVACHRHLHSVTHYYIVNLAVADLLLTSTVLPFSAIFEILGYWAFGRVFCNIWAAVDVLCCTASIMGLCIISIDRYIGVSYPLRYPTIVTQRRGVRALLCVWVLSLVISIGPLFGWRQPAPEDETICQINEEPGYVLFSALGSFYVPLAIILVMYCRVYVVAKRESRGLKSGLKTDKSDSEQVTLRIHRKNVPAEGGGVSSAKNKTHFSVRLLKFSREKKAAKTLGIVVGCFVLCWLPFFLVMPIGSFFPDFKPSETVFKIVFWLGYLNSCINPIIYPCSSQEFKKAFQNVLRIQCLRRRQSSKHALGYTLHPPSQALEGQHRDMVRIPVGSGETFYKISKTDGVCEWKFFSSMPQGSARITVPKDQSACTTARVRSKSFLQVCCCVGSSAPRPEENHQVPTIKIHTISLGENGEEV
Kind of experiment: Displacement of [3H]prazosin from adrenergic alpha-1 receptor in rat cortical membrane. In kind it is cell membranes.

Sequence of Sodium-dependent serotonin transporter (Rattus norvegicus) (P31652 whole entry): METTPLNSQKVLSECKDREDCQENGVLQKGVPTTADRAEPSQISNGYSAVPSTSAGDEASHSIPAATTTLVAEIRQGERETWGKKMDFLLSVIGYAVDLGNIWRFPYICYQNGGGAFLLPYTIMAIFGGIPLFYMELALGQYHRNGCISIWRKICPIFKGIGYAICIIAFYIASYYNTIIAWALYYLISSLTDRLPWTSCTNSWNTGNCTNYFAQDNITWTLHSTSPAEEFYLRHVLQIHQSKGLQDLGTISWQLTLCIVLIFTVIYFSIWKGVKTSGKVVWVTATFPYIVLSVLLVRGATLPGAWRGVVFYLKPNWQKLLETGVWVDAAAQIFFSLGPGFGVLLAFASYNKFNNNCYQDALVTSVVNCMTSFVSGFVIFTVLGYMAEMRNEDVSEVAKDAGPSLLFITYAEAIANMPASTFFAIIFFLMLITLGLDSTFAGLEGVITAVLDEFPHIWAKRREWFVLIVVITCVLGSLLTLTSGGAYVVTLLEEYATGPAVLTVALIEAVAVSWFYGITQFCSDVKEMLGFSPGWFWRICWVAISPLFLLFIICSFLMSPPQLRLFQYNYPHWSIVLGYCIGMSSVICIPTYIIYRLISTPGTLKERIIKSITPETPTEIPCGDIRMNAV
Sequence of Sodium-dependent serotonin transporter (P31652 whole entry): as above

The compound `CN1CC(CNCCc2c[nH]c3ccc(F)cc23)Oc2ccccc21` (centres undefined) had an Emax in experiment [1] of 80%. The compound further gave an inhibition in experiment [2] of 26%. Also, the results for the Ki in experiment [3] and in experiment [4] were 12.4 nM and 8.46 nM, respectively. In addition, the EC50 in experiment [5] is 167 nM.
Consider `c1ccc(N2CC(CNCCc3c[nH]c4ccccc34)Oc3ccccc32)cc1` (centres undefined), for which, in experiment [6], the inhibition was found to be 23%. The compound further returned a Ki in experiment [4] of 30.2 nM.
In the case of `CC(C)CN1CC(CNCCc2c[nH]c3ccc(F)cc23)Oc2ccccc21` (centres undefined), the Emax in experiment [1] was 88%. Moreover, the Ki in experiment [3] is 51.5 nM; in experiment [4], 8.15 nM. The same compound returned a half-maximal effective concentration (EC50) in experiment [5] of 329 nM.
Taken in the same sequence, the figures for `CC(C)N1CC(CNCCc2c[nH]c3ccc(F)cc23)Oc2ccccc21` (centres undefined) were 90%, 21.1 nM, 2.81 nM and 191 nM.
Consider `Fc1ccc2[nH]cc(CCNCC3CN(c4ccccc4)c4ccccc4O3)c2c1` (centres undefined), for which the inhibition in experiment [2] was determined as 65%; in experiment [6], 43%. This compound yielded a Ki in experiment [4] of 7.14 nM.
As to `C1=C(c2c[nH]c3ccccc23)CCN(CC2CNc3ccccc3O2)C1` (centres undefined), the Emax in experiment [1] is 62%. In addition, the values for the Ki in experiment [3] and in experiment [7] were 8.37 nM and 16.6 nM, respectively. The compound also returned an EC50 in experiment [5] of 1130 nM.
Regarding `CCCN1CC(CN2CC=C(c3c[nH]c4ccc(F)cc34)CC2)Oc2c(OC)cccc21` (centres undefined), the Emax in experiment [1] was 92%. In addition, the Ki in experiment [3] came to 22.6 nM; in experiment [7] it was 505.5 nM. The concentration giving a half-maximal response (EC50) in experiment [5] was determined as 135 nM.
In experiment [1], `COc1cccc2c1OC(CN1CC=C(c3c[nH]c4ccc(F)cc34)CC1)CN2` (centres undefined) came in with a maximum response (Emax) of 35%. For the same compound, the Ki was 6.94 nM in experiment [3] and 14.5 nM in experiment [7]. In experiment [5], this compound returned an EC50 of 386 nM.
The compound `c1ccc(CN2CC(CNCCCc3c[nH]c4ccccc34)Oc3ccccc32)cc1` (centres undefined) returned an Emax in experiment [1] of 64%. The inhibition constant (Ki) in experiment [3] worked out at 109 nM; in experiment [4], 76.1 nM. In addition, the midpoint of the response in experiment [5], the EC50, lay at 1380 nM.
In turn, `COc1cccc2c1OC(CN1CC=C(c3c[nH]c4ccc(F)cc34)CC1)CN2C` (centres undefined) yielded an Emax in experiment [1] of 93%. Also, the inhibition constant (Ki) in experiment [3] was 12.6 nM; in experiment [7], 96.5 nM. The EC50 in experiment [5] is 190 nM.
Taken in the same sequence, the figures for `CCN1CC(CN2CC=C(c3c[nH]c4ccc(F)cc34)CC2)Oc2c(OC)cccc21` (centres undefined) were 54%, 13.2 nM, 229 nM and 418 nM.
Regarding `Fc1ccc2[nH]cc(CCNCC3CN(Cc4ccccc4)c4ccccc4O3)c2c1` (centres undefined), the inhibition in experiment [6] was found to be 23%. The Ki in experiment [4] worked out at 7.25 nM.
On to `COc1ccc2c(c1)OC(CNCCc1c[nH]c3ccc(F)cc13)CN2` (centres undefined), for which, in experiment [1], the Emax is 56%. Further, the Ki was 11.7 nM in experiment [3], 103 nM in experiment [4] and 44.5 nM in experiment [7]. Besides, in experiment [5], the EC50 is 181 nM.
`Fc1ccc2[nH]cc(CCNCC3CNc4ccccc4O3)c2c1` (centres undefined): the Emax in experiment [1] worked out at 100%. Moreover, the values for the Ki in experiment [3], in experiment [4] and in experiment [7] were 16 nM, 11 nM and 70 nM, respectively. The same compound displayed an EC50 in experiment [5] of 155 nM.
In experiment [6], `c1ccc(N2CC(CNCCCc3c[nH]c4ccccc34)Oc3ccccc32)cc1` (centres undefined) yielded an inhibition of 7%. In addition, the affinity in experiment [4] corresponds to a Ki of 75.8 nM.
Regarding `CC(C)N1CC(CNCCCc2c[nH]c3ccccc23)Oc2ccccc21` (centres undefined), the Emax in experiment [1] came to 88%. Further, the Ki is 23.8 nM in experiment [3] and 90.4 nM in experiment [4]. The compound also yielded an EC50 in experiment [5] of 329 nM.
With `COc1cccc2c1OC(CNCCc1c[nH]c3ccc(F)cc13)CN2` (centres undefined), in experiment [1], the Emax worked out at 66%. Moreover, the results for the inhibitory constant (Ki) in experiment [3], in experiment [4] and in experiment [7] were 3.13 nM, 9.31 nM and 7.6 nM, respectively. Also, in experiment [5], the EC50 was determined as 52.2 nM.
As to `c1ccc2c(c1)NCC(CNCCc1c[nH]c3ccccc13)O2` (centres undefined), the Emax in experiment [1] is 96%. In experiment [2], this compound yielded an inhibition of 26%. In addition, the Ki stood at 89.8 nM in experiment [3] and 6.91 nM in experiment [4]. The compound further returned an EC50 in experiment [5] of 93.5 nM.
The compound `CCCN1CC(CNCCc2c[nH]c3ccccc23)Oc2ccccc21` (centres undefined) gave an Emax in experiment [1] of 100%. In addition, the Ki was found to be 22.7 nM in experiment [3], 12.8 nM in experiment [4] and 481 nM in experiment [7]. In experiment [5], this compound registered an EC50 of 196 nM.
For the compound `CCN1CC(CNCCc2c[nH]c3ccc(F)cc23)Oc2ccccc21` (centres undefined), in experiment [1], the Emax was 100%. Further, the Ki in experiment [3] and in experiment [4] was 15.3 nM in each case. Moreover, the EC50 in experiment [5] stood at 90 nM.
`CN1CC(CNCCc2c[nH]c3ccc(F)cc23)Oc2cc(Cl)ccc21` (centres undefined) yielded an Emax in experiment [1] of 64%. The Ki in experiment [3] was 42.6 nM; in experiment [4], 75.2 nM; in experiment [7], 607 nM. The compound further had an EC50 in experiment [5] of 336 nM.
With `CN1CC(CNCCc2c[nH]c3ccccc23)Oc2ccccc21` (centres undefined), the Emax in experiment [1] is 95%. This compound also gave an inhibition in experiment [2] of 28%. Further, the Ki came to 88.5 nM in experiment [3] and 5.86 nM in experiment [4]. The compound further yielded an EC50 in experiment [5] of 33.6 nM.
